Earlier results, collected in patent publication US10813571B2, “Devices and methods for non-invasive monitoring of substance in a body” (TATA C[…] LIMITED, priority 2015, dated 2020).

Settings: in the user's (smoker's) body; as known in the art

Structure (SMILES): CN1CCCC1c1cccnc1 (stereo not shown) [nicotine]
- half-life of nicotine in the body (t1/2): 1 to 2 h
